Laboratory results reported in patent publication US20210045385A1, “PYRIDAZINONE-SUBSTITUTED KETOXIMES AS HERBICIDES” (FMC Corporation, priority 2018, published 2021).

Legend:
Format in all cases: in vivo
[1] = system: barnyardgrass (Echinochloa crus-galli); test: Test C preemergence, visual plant response rating; details: Test C, 0 is no effect, 100 is complete control
Summary of the method: (§1)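 Visual injury on a 0 (no effect) to 100 (complete control) scale versus untreated controls, scored approximately 10 d after treatment under greenhouse conditions. Treatments used surfactant-containing non-phytotoxic solvent formulations, sprayed onto loam–sand soil preemergence or onto one- to two-leaf plants 2–10 cm tall postemergence.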

[2] = system: foxtail, giant (giant foxtail, Setaria faberi); test: Test C preemergence, visual plant response rating; details: Test C, 0 is no effect, 100 is complete control
Summary of the method: as §1

[3] = system: Italian ryegrass (Lolium mutiflorum); test: Test C preemergence, visual plant response rating; details: Test C, 0 is no effect, 100 is complete control
Summary of the method: as §1

[4] = system: pigweed (Amaranthus retroflexus); test: Test C preemergence, visual plant response rating; details: Test C, 0 is no effect, 100 is complete control
Summary of the method: as §1

kochia (Bassia scoparia) [5] = test: Test C preemergence, visual plant response rating; details: Test C, 0 is no effect, 100 is complete control
Summary of the method: as §1

[6] = system: ragweed (common ragweed, Ambrosia artemisiifolia); test: Test C preemergence, visual plant response rating; details: Test C, 0 is no effect, 100 is complete control
Summary of the method: as §1

[7] = system: barnyardgrass (Echinochloa crus-galli); test: Test D flooded paddy test, visual plant response rating; details: 250 g ai/ha, scale 0 to 100 (0 no effect, 100 complete control), 13 to 15 d
Summary of the method: (§2)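 Rating is visual, on a 0 (no effect) to 100 (complete control) scale versus controls, taken 13 to 15 d after treatment in a greenhouse. Treatment went into paddy water kept 3 cm above the soil surface, with plants at the 2-leaf stage.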

[8] = system: duck salad (Heteranthera limosa); test: as above; details: 250 g ai/ha, scale 0 to 100 (0 no effect, 100 complete control), 13 to 15 d
Summary of the method: as §2

[9] = system: sedge umbrella (small-flower umbrella sedge, Cyperus difformis); test: as above; details: 250 g ai/ha, scale 0 to 100 (0 no effect, 100 complete control), 13 to 15 d
Summary of the method: as §2

rice (Oryza sativa) = test: as above; details: 250 g ai/ha, scale 0 to 100 (0 no effect, 100 complete control), 13 to 15 d
Summary of the method: as §2

corn (Zea mays) = test: Test C postemergence, visual plant response rating
Summary of the method: as §1

[10] = system: barnyardgrass (Echinochloa crus-galli); test: Test C postemergence, visual plant response rating
Summary of the method: as §1

[11] = system: foxtail, giant (giant foxtail, Setaria faberi); test: Test C postemergence, visual plant response rating
Summary of the method: as §1

[12] = system: Italian ryegrass (Lolium mutiflorum); test: Test C postemergence, visual plant response rating
Summary of the method: as §1

[13] = system: pigweed (Amaranthus retroflexus); test: Test C postemergence, visual plant response rating
Summary of the method: as §1

[14] = system: blackgrass (Alopecurus myosuroides); test: Test C postemergence, visual plant response rating
Summary of the method: as §1

kochia (Bassia scoparia) [15] = test: Test C postemergence, visual plant response rating
Summary of the method: as §1

[16] = system: wheat (Triticum aestivum); test: Test C postemergence, visual plant response rating
Summary of the method: as §1

[17] = system: galium (catchweed bedstraw, Galium aparine); test: Test C postemergence, visual plant response rating
Summary of the method: as §1

[18] = system: ragweed (common ragweed, Ambrosia artemisiifolia); test: Test C postemergence, visual plant response rating
Summary of the method: as §1

[19] = Test C, postemergence, 125 g ai/ha

SMILES | Barnyardgrass plant response rating (0 to 100 scale) ([1]; 31 g ai/ha) | Barnyardgrass plant response rating (0 to 100 scale) ([1]; 125 g ai/ha) | Foxtail, Giant plant response rating (0 to 100 scale) ([2]; 31 g ai/ha) | Foxtail, Giant plant response rating (0 to 100 scale) ([2]; 125 g ai/ha) | Ryegrass, Italian plant response rating (0 to 100 scale) ([3]; 31 g ai/ha) | Ryegrass, Italian plant response rating (0 to 100 scale) ([3]; 125 g ai/ha) | Pigweed plant response rating (0 to 100 scale) ([4]; 31 g ai/ha) | Pigweed plant response rating (0 to 100 scale) ([4]; 125 g ai/ha) | Kochia plant response rating (0 to 100 scale) (kochia (Bassia scoparia) [5]; 31 g ai/ha) | Kochia plant response rating (0 to 100 scale) (kochia (Bassia scoparia) [5]; 125 g ai/ha) | Ragweed plant response rating (0 to 100 scale) ([6]; 31 g ai/ha) | Ragweed plant response rating (0 to 100 scale) ([6]; 125 g ai/ha) | Plant response rating, Barnyardgrass (Flood) [7] | Plant response rating, Ducksalad (Flood) [8] | Plant response rating, Sedge, Umbrella (Flood) [9] | Plant response rating, Rice (Flood) (rice (Oryza sativa)) | Corn plant response rating (0 to 100 scale) (corn (Zea mays); Postemergence, 31 g ai/ha) | Corn plant response rating (0 to 100 scale) (corn (Zea mays); [19]) | Barnyardgrass plant response rating (0 to 100 scale) ([10]; Postemergence, 31 g ai/ha) | Barnyardgrass plant response rating (0 to 100 scale) [10, 19] | other results
CO/N=C(\c1cc(F)cc(C)c1F)c1c(O)c(C)nn(C)c1=O [Compound 193] | 30 | 60 | 30 | 80 | 30 | 80 | 50 | 90 | 10 | 70 | 30 | 60 | 0 | 0 | 0 | 0 | 0 | 10 | 20 | 50 | Foxtail, Giant plant response rating (0 to 100 scale) ([11]; Postemergence, 31 g ai/ha): 40; Foxtail, Giant plant response rating (0 to 100 scale) [11, 19]: 50; Ryegrass, Italian plant response rating (0 to 100 scale) ([12]; Postemergence, 31 g ai/ha): 40; Ryegrass, Italian plant response rating (0 to 100 scale) [12, 19]: 70; Pigweed plant response rating (0 to 100 scale) ([13]; Postemergence, 31 g ai/ha): 40; Pigweed plant response rating (0 to 100 scale) [13, 19]: 80; Blackgrass plant response rating (0 to 100 scale) ([14]; Postemergence, 31 g ai/ha): 20; Blackgrass plant response rating (0 to 100 scale) [14, 19]: 50; Kochia plant response rating (0 to 100 scale) (kochia (Bassia scoparia) [15]; Postemergence, 31 g ai/ha): 60; Kochia plant response rating (0 to 100 scale) (kochia (Bassia scoparia) [15]; [19]): 70; Wheat plant response rating (0 to 100 scale) ([16]; Postemergence, 31 g ai/ha): 0; Wheat plant response rating (0 to 100 scale) [16, 19]: 0; Galium plant response rating (0 to 100 scale) ([17]; Postemergence, 31 g ai/ha): 80; Galium plant response rating (0 to 100 scale) [17, 19]: 90; Ragweed plant response rating (0 to 100 scale) ([18]; Postemergence, 31 g ai/ha): 70; Ragweed plant response rating (0 to 100 scale) [18, 19]: 70
C#CCON=C(c1cccc(OCC(F)(F)F)c1)c1c(O)c(C)nn(C)c1=O [Compound 197] | 0 | 0 | 0 | 10 | 0 | 20 | 0 | 20 | 0 | 0 | 0 | 0 | 0 | 0 | 0 | 0 | 0 | 0 | 0 | 10 | Foxtail, Giant plant response rating (0 to 100 scale) ([11]; Postemergence, 31 g ai/ha): 0; Foxtail, Giant plant response rating (0 to 100 scale) [11, 19]: 20; Ryegrass, Italian plant response rating (0 to 100 scale) ([12]; Postemergence, 31 g ai/ha): 0; Ryegrass, Italian plant response rating (0 to 100 scale) [12, 19]: 20; Pigweed plant response rating (0 to 100 scale) ([13]; Postemergence, 31 g ai/ha): 10; Pigweed plant response rating (0 to 100 scale) [13, 19]: 30; Blackgrass plant response rating (0 to 100 scale) ([14]; Postemergence, 31 g ai/ha): 0; Blackgrass plant response rating (0 to 100 scale) [14, 19]: 30; Kochia plant response rating (0 to 100 scale) (kochia (Bassia scoparia) [15]; Postemergence, 31 g ai/ha): 0; Kochia plant response rating (0 to 100 scale) (kochia (Bassia scoparia) [15]; [19]): 0; Wheat plant response rating (0 to 100 scale) ([16]; Postemergence, 31 g ai/ha): 0; Wheat plant response rating (0 to 100 scale) [16, 19]: 0; Galium plant response rating (0 to 100 scale) ([17]; Postemergence, 31 g ai/ha): 0; Galium plant response rating (0 to 100 scale) [17, 19]: 30; Ragweed plant response rating (0 to 100 scale) ([18]; Postemergence, 31 g ai/ha): 0; Ragweed plant response rating (0 to 100 scale) [18, 19]: 0
CON=C(c1cccc(OCC(F)(F)F)c1)c1c(O)c(C)nn(C)c1=O [Compound 198] | 0 | 40 | 0 | 70 | 0 | 70 | 0 | 0 | 0 | 0 | 0 | 0 | 0 | 0 | 0 | 0 | 0 | 20 | 20 | 80 | Foxtail, Giant plant response rating (0 to 100 scale) ([11]; Postemergence, 31 g ai/ha): 20; Foxtail, Giant plant response rating (0 to 100 scale) [11, 19]: 70; Ryegrass, Italian plant response rating (0 to 100 scale) ([12]; Postemergence, 31 g ai/ha): 0; Ryegrass, Italian plant response rating (0 to 100 scale) [12, 19]: 60; Pigweed plant response rating (0 to 100 scale) ([13]; Postemergence, 31 g ai/ha): 0; Pigweed plant response rating (0 to 100 scale) [13, 19]: 10; Blackgrass plant response rating (0 to 100 scale) ([14]; Postemergence, 31 g ai/ha): 0; Blackgrass plant response rating (0 to 100 scale) [14, 19]: 40; Kochia plant response rating (0 to 100 scale) (kochia (Bassia scoparia) [15]; Postemergence, 31 g ai/ha): 0; Kochia plant response rating (0 to 100 scale) (kochia (Bassia scoparia) [15]; [19]): 0; Wheat plant response rating (0 to 100 scale) ([16]; Postemergence, 31 g ai/ha): 0; Wheat plant response rating (0 to 100 scale) [16, 19]: 0; Galium plant response rating (0 to 100 scale) ([17]; Postemergence, 31 g ai/ha): 0; Galium plant response rating (0 to 100 scale) [17, 19]: 20; Ragweed plant response rating (0 to 100 scale) ([18]; Postemergence, 31 g ai/ha): 0; Ragweed plant response rating (0 to 100 scale) [18, 19]: 0
C#CCON=C(c1cccc(OCC)c1)c1c(O)c(C)nn(C)c1=O [Compound 199] | 0 | 0 | 0 | 10 | 0 | 20 | 0 | 10 | 0 | 0 | 0 | 0 | 0 | 0 | 0 | 0 | 0 | 0 | 0 | 20 | Foxtail, Giant plant response rating (0 to 100 scale) ([11]; Postemergence, 31 g ai/ha): 0; Foxtail, Giant plant response rating (0 to 100 scale) [11, 19]: 20; Ryegrass, Italian plant response rating (0 to 100 scale) ([12]; Postemergence, 31 g ai/ha): 0; Ryegrass, Italian plant response rating (0 to 100 scale) [12, 19]: 0; Pigweed plant response rating (0 to 100 scale) ([13]; Postemergence, 31 g ai/ha): 0; Pigweed plant response rating (0 to 100 scale) [13, 19]: 0; Blackgrass plant response rating (0 to 100 scale) ([14]; Postemergence, 31 g ai/ha): 0; Blackgrass plant response rating (0 to 100 scale) [14, 19]: 20; Kochia plant response rating (0 to 100 scale) (kochia (Bassia scoparia) [15]; Postemergence, 31 g ai/ha): 0; Kochia plant response rating (0 to 100 scale) (kochia (Bassia scoparia) [15]; [19]): 0; Wheat plant response rating (0 to 100 scale) ([16]; Postemergence, 31 g ai/ha): 0; Wheat plant response rating (0 to 100 scale) [16, 19]: 0; Galium plant response rating (0 to 100 scale) ([17]; Postemergence, 31 g ai/ha): 20; Galium plant response rating (0 to 100 scale) [17, 19]: 30; Ragweed plant response rating (0 to 100 scale) ([18]; Postemergence, 31 g ai/ha): 0; Ragweed plant response rating (0 to 100 scale) [18, 19]: 0
